Assay results published in US8921108B2, “Differentiated human liver cell cultures and their use in bioartificial liver systems” (Academisch Ziekenhuis Bij de Universiteit van Amsterdam, priority 2009, dated 2014).
Marks after values point to notes of the source that are not given here.

What was measured:
Format in all cases: cell-based, human
HepaRG cells [1] = test: Urea production of HepaRG monolayer cultures
Procedure: For testing, the cells are seeded in 6-well and 24-well culture plates (Corning) in HepaRG media with different FBS batches or other differences in medium composition. After a 2 weeks proliferation phase, 2% of DMSO will be added to half of the cultures. After another 2 weeks of culturing, the confluence and morphology of the cultures will be assessed microscopically. Furthermore the +DMSO and −DMSO cell cultures in the 24-well plates will be tested for biochemical activity, i.e. urea production, ammonia elimination and protein content. […] Medium samples are taken after 1 hr from the culture wells, as a reference, and after 24 hours. At the end of the test period the cells are washed three times using PBS and stored at −20° C. for protein determination. From the changes in concentration at t=1 hr and 24 hr of urea and ammonia an activity per hour and per mg protein/well is calculated.
(§1) Urea: Urea concentrations of test medium samples are determined using the blood urea nitrogen test of Sigma Chemical Co according to the instructions of the manufacturer.
(§2) The HepaRG cells are cultured as indicated above in 24 well in presence or absence of 1 mM CG during the last 5 days. Next the cells are tested as indicated above in presence or absence of CG during 24 hours. To determine the conversion of ammonia into urea, the ^15N urea enrichment (single and double labeled) is measured in the test samples using mass-spectrometry. Similarly, HepG2 and cBAL111 cells were tested for their response to CG.

HepaRG cells [2] = test: 15N urea enrichment (conversion of ammonia into urea) in HepaRG monolayer cultures; settings: for 15N urea enrichment: 1 mM CG in preincubation and in testmedium (++)
Procedure: For testing, the cells are seeded in 6-well and 24-well culture plates (Corning) in HepaRG media with different FBS batches or other differences in medium composition. After a 2 weeks proliferation phase, 2% of DMSO will be added to half of the cultures. After another 2 weeks of culturing, the confluence and morphology of the cultures will be assessed microscopically. Furthermore the +DMSO and −DMSO cell cultures in the 24-well plates will be tested for biochemical activity, i.e. urea production, ammonia elimination and protein content. The cultured cells are washed twice using phosphate buffered saline (PBS, NBPI International) and then incubated with test medium consisting of HepaRG culture medium supplemented with 1.5 mM ^15NH4Cl (Sigma), 2.75 mM D-galactose (Sigma), 2 mM ornithine hydrochloride (Sigma) and 2 mM L-lactate (Sigma). Medium samples are taken after 1 hr from the culture wells, as a reference, and after 24 hours. At the end of the test period the cells are washed three times using PBS and stored at −20° C. for protein determination. From the changes in concentration at t=1 hr and 24 hr of urea and ammonia an activity per hour and per mg protein/well is calculated. Quality of the cell-loaded bioreactors, measured by hepatocyte function at the start of the treatment, will be compared with values of primary hepatocytes that have been tested extensively in vitro in the past.
^15N Urea: Single and Double labelled urea is measured in the test medium samples using mass-spectrometry.
as §2

HepaRG cells [3] = test: RT-PCR mRNA levels of hepatic genes in HepaRG monolayer cultures; settings: CG treatment
Procedure: The HepaRG cells cultured in the 6-well plates are lysed and the RNA is isolated using the RNeasy kit (Qiagen). Next, real-time reverse transcriptase-polymerase chain reactions (RT-PCR) are performed to quantify mRNA levels of hepatic genes as well as 18S ribosomal RNA levels by RT-PCR.
First-strand cDNA is generated using a combination of 40 pmol of gene-specific RT-primers (see Table 1) and 134 units of Superscript III (Invitrogen) and 1 μg RNA in a total volume of 25 μl at 50° C. for one hour followed by a 15 min incubation at 70° C. The resulting gene-specific RT reaction mixtures are column purified using Qiaquick PCR Purification Kit (Qiagen).
Real-time PCR is performed using 1 μl of cDNA and LightCycler FastStart DNA Master SYBR® Green 1 reagent (Roche). PCR primers are depicted in the Table 3. The thermal cycling profile of the touchdown PCR is as follows: 94° C. for 10 min, followed by 40 cycles of 94° C. for 1 s, primer annealing at 68° C. for 7 s with a 0.5° C./cycle decrease until 63° C., and extension for 40 s at 72° C. PCR specificity is verified by melting curve analysis and agarose gel electrophoresis. The mRNA quantification is carried out by using the LinRegPCR programme (Ramakers et al.^17). For each sample the mRNA starting level is normalised for the 18S rRNA starting level. To correct for variations between RT-PCR runs, the mRNA starting levels of liver specific genes of NKNT-3 cells are additionally standardized for average mRNA starting levels of two liver samples that are simultaneously subjected to RT-PCR.

HepG2 cells = test: Urea production of HepG2 cells in monolayer, response to CG
Procedure: as §1, §2

cBAL111 cells = test: Urea production of cBAL111 cells in monolayer, response to CG
Procedure: as §1, §2

HepaRG cells [4] = test: RT-PCR mRNA levels of hepatic genes in HepaRG cells from AMC-BAL bioreactor
[5] = 1 mM CG in preincubation and in testmedium (++)
[6] = 1 mM CG only during preincubation (+−)
[7] = Bioreactor −DMSO +CG versus Monolayer + DMSO − CG
[8] = Bioreactor −DMSO +CG versus Monolayer − DMSO − CG
[9] = HepaRG in AMC-BAL bioreactor, 13 days, −DMSO, 1 mM CG

## NC(=O)N[C@@H](CCC(=O)O)C(=O)O [CG, carbamoyl glutamate]
HepaRG cells [1]
  instantaneous effect of CG on urea production: negligible
HepaRG cells [1]; HepaRG + DMSO, 1 mM CG in preincubation and in testmedium (++)
  Urea production: 13.7 ± 4.4 nmol/h/mg protein
HepaRG cells [1]; HepaRG + DMSO, 1 mM CG only during preincubation (+−)
  Urea production: 11.0 ± 5.3 nmol/h/mg protein
HepaRG cells [1]; HepaRG + DMSO, 1 mM CG only during test (−+)
  Urea production: 4.9 ± 4.2 nmol/h/mg protein
HepaRG cells [1]; HepaRG − DMSO, 1 mM CG in preincubation and in testmedium (++)
  Urea production: 9.5 ± 4.2 nmol/h/mg protein
HepaRG cells [1]; HepaRG − DMSO, 1 mM CG only during preincubation (+−)
  Urea production: 9.6 ± 3.3 nmol/h/mg protein
HepaRG cells [1]; HepaRG − DMSO, 1 mM CG only during test (−+)
  Urea production: 5.9 ± 2.4 nmol/h/mg protein
HepaRG cells [1]; all cell lines (HepG2, cBAL111, HepaRG), 1 mM CG
  increase of urea production by CG treatment: more than two-fold
HepaRG cells [1]; cells exposed to carbamoyl glutamate for at least 5 days
  time increased urea production is maintained upon withdrawal of the CG: at least 24 hrs
HepaRG cells [2]; HepaRG + DMSO
  15N urea enrichment: 7.8 ± 2.4 % of total urea produced
HepaRG cells [2]; HepaRG − DMSO
  15N urea enrichment: 24.4 ± 4.1 % of total urea produced
HepaRG cells [2]; HepaRG −DMSO cells, CG treatment
  increase of % of urea of the total urea produced from ammonia: four-fold
HepaRG cells [3]
  effect on other hepatic functions and the gene expression profiles: No effect
HepG2 cells; [5]
  Urea production: 2.4 ± 1.6 nmol/h/mg protein
HepG2 cells; [6]
  Urea production: 2.5 ± 1.4 nmol/h/mg protein
HepG2 cells; 1 mM CG only during test (−+)
  Urea production: 1.8 ± 1.1 nmol/h/mg protein
cBAL111 cells; [5]
  Urea production: 9.4 ± 8.4 nmol/h/mg protein
cBAL111 cells; [6]
  Urea production: 10.8 ± 6.2 nmol/h/mg protein
cBAL111 cells; 1 mM CG only during test (−+)
  Urea production: 8.3 ± 8.3 nmol/h/mg protein
HepaRG cells [4]; [7]
  % improvement by bioreactor: Alb mRNA level: 313* %
  % improvement by bioreactor: ArgI mRNA level: 460* %
  % improvement by bioreactor: ArgII mRNA level: 42%
  % improvement by bioreactor: CPS mRNA level: 4000* %
  % improvement by bioreactor: CYP2B6 mRNA level: 49%
  % improvement by bioreactor: CYP3A4 mRNA level: 148%
  % improvement by bioreactor: GS mRNA level: 714%
  % improvement by bioreactor: HNF4 mRNA level: 198* %
  % improvement by bioreactor: PXR mRNA level: 633%
HepaRG cells [4]; [8]
  % improvement by bioreactor: Alb mRNA level: 109%
  % improvement by bioreactor: ArgI mRNA level: 155%
  % improvement by bioreactor: ArgII mRNA level: 54%
  % improvement by bioreactor: CPS mRNA level: 145%
  % improvement by bioreactor: CYP2B6 mRNA level: 863* %
  % improvement by bioreactor: CYP3A4 mRNA level: 1063* %
  % improvement by bioreactor: GS mRNA level: 300* %
  % improvement by bioreactor: HNF4 mRNA level: 187* %
  % improvement by bioreactor: PXR mRNA level: 437%
HepaRG cells [4]; [9]
  Alb mRNA level: 72.1 ± 26.0 % of in vivo
  ArgI mRNA level: 22.9 ± 10.4 % of in vivo
  ArgII mRNA level: 305 ± 143 % of in vivo
  CPS mRNA level: 44.1 ± 32.2 % of in vivo
  CYP2B6 mRNA level: 30.2 ± 15.9 % of in vivo
  CYP3A4 mRNA level: 102 ± 49.4 % of in vivo
  GS mRNA level: 643 ± 395 % of in vivo
  HNF4 mRNA level: 386 ± 216 % of in vivo
  PXR mRNA level: 82.5 ± 68.9 % of in vivo
